Measured values taken from patent US10028992B2, “Methods of treating muscular dystrophy” (BOARD OF REGENTS OF THE NEVADA SYSTEM OF HIGHER EDUCATION …, priority 2012, dated 2018).

Test system: α7 integrin promoter
Test: muscle cell-based assay: α7βgal+/− myoblasts/myotubes, LacZ reporter, β-galactosidase cleavage of FDG
Design: species or system mouse
Details: Myotubes; for Results in a α7+/− β-galactosidase assay, Myotubes, 0.5 uM: compound at 0.5 uM; for Results in a α7+/− β-galactosidase assay, Myotubes, 1 uM: compound at 1 uM; for Results in a α7+/− β-galactosidase assay, Myotubes, 5 uM: compound at 5 uM; for Results in a α7+/− β-galactosidase assay, Myotubes, 10 uM: compound at 10 uM; for Results in a α7+/− β-galactosidase assay, Myotubes, 20 uM: compound at 20 uM; for Results in a α7+/− β-galactosidase assay, Myotubes, 40 uM: compound at 40 uM
How it was run: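 Fluorescein generated from FDG by β-galactosidase reports α7 integrin promoter activity in differentiated myoblasts from α7+/− LacZ knock-in pups. Screening hits then went to dose-response, western blotting and a myostatin counterscreen.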

SMILES | Results in a α7+/− β-galactosidase assay, Myotubes, 0.5 uM | Results in a α7+/− β-galactosidase assay, Myotubes, 1 uM | Results in a α7+/− β-galactosidase assay, Myotubes, 5 uM | Results in a α7+/− β-galactosidase assay, Myotubes, 10 uM | Results in a α7+/− β-galactosidase assay, Myotubes, 20 uM | Results in a α7+/− β-galactosidase assay, Myotubes, 40 uM
O=C1C2CCCN2C(=O)N1CCCN1CCN(c2cccc(Br)c2)CC1 (stereo not drawn) [drawing 453] | −0.101 | −0.07437 | −0.1132 | 0.07677 | −0.1243 | 0.1476
C=CCc1c(C)nc(-c2ccccc2)nc1N/N=C(\C)c1ccc(N)cc1 [drawing 454] | −0.04135 | −0.05977 | −0.2067 | 0.05284 | −0.1823 | 0.1021
CC(C)(C)c1csc(NC(=O)c2cccnc2)n1 [drawing 455] | −0.1018 | −0.04907 | 0.01472 | 0.1276 | −0.2798 | −0.144
Cc1ccccc1/C=C1\C(=O)Nc2ccc(F)cc21 [drawing 456] | 0.008769 | −0.01895 | −0.02208 | 0.1345 | −0.1202 | 0.009496
Cc1ccc2c(c1)/C(=C/c1ccccc1)C(=O)N2 [drawing 457] | −0.1541 | −0.09775 | −0.09703 | 0.151 | −0.411 | −0.4149
COC(=O)c1ccccc1CC(=O)CSc1nc(O)c(-c2ccccc2)c(O)n1 [drawing 458] | −0.05289 | −0.1068 | −0.1993 | 0.1104 | −0.1578 | 0.03611
Cc1ccc2c(c1)/C(=C/c1ccccc1F)C(=O)N2 [drawing 459] | −0.02905 | −0.08264 | −0.2089 | 0.1057 | −0.3626 | −0.3722
CC(=O)Nc1ccc(-n2c(C)nc(=O)c(-c3ccccc3)c2C)cc1 [drawing 460] | −0.1626 | −0.1764 | −0.2443 | −0.1679 | −0.3617 | −0.505
CCc1nc2ccccc2c(C(=O)NCc2ccccc2)c1C [drawing 461] | −0.0989 | −0.1627 | 0.438 | 0.1173 | −0.1092 | 0.1436
CCOC(=O)c1cc(-c2cccs2)nc2c1c(C)nn2-c1ccccn1 [drawing 462] | −0.07388 | −0.1286 | −0.1329 | −0.1516 | −0.2792 | −0.2792
CN1CCN(c2ccccc2/C=C2\C(=O)Nc3ccccc32)CC1 [drawing 463] | 0.01535 | 0.02095 | −0.163 | −0.162 | −0.1247 | −0.07473
COC(=O)c1cc(S(=O)(=O)NCC2CCN(Cc3ccc(Cl)cc3)CC2)cn1C [drawing 464] | −0.00414 | −0.05118 | −0.09401 | −0.08097 | −0.09607 | −0.07382
COc1ccc(C(=O)Cn2nnc(-c3ccccc3NC(=O)c3ccco3)n2)cc1 [drawing 465] | 0.1086 | 0.1215 | −0.1502 | −0.3147 | −0.5196 | −0.8196
N#Cc1nc(COc2ccccc2)oc1N1CCCC1 [drawing 466] | −0.1447 | −0.2423 | −0.3897 | −0.2892 | −0.5781 | −0.8948
CCCc1nnc(SCC(=O)NC2CCCC2)n1CCOC [drawing 467] | −0.09246 | 0.01763 | −0.3088 | 0.4536 | −0.2024 | −0.4694
Nc1cccc(/C=C/C(=O)O)c1 [drawing 468] | 0.04663 | −0.01629 | −0.2823 | −0.1292 | −0.1085 | −0.2156
CCCC1C(c2cc(OC)c(OC)c(OC)c2)=Nc2c1c(=O)[nH]c(=O)n2Cc1ccccc1 (stereo not drawn) [drawing 469] | −0.09222 | −0.1313 | −0.484 | −0.34 | −0.2089 | −0.2856
CC(C)(C)c1ccc(C(=O)OCC(=O)Nc2sc3c(c2C#N)CCC3)cc1 [drawing 470] | −0.03535 | −0.03363 | 0.4586 | −0.1998 | −0.05439 | −0.05938
CCOc1cc(C)c(S(=O)(=O)N2CCCCC2)cc1C [drawing 471] | −0.1603 | −0.08287 | −0.1415 | −0.1282 | 0.01353 | −0.03791
Cc1cc(OCC(=O)NC(C)C)ccc1Cl [drawing 472] | −0.02692 | −0.04637 | −0.3868 | −0.4196 | −0.2513 | −0.2531
Cc1ccsc1CN(C)CC(=O)Cc1ccc([N+](=O)[O-])cc1Cl [drawing 473] | −0.05036 | −0.06852 | −0.2581 | −0.2695 | −0.1438 | −0.2052
